{"source": "patent US11919898B2", "about": "“Crystal form of azaindole derivative and use thereof” (Wuxi Life Fountain Biotech Co., Ltd, priority 2020, dated 2024)", "key": {"[1]": {"test": "Pharmacokinetic evaluation in rats (intravenous and oral)", "type": "in vivo, male SD rats", "protocol": "For agents for intravenous administration, 30% (v/v) PEG400 in purified water was as a vehicle. An appropriate amount of compound was accurately weighed into a glass flask, 30 vol % of PEG400 of the container volume was slowly added to the container with stirring, and then the remaining 70 vol % of pure water was added to make up to the final volume and stirred continuously until a clear solution was obtained. The solution was filtered through a […] filter membrane, and stored at room temperature for later use. The agents for intravenous administration were formulated on the day of administration, and injected into male SD rats via tail vein (fasted overnight before administration) at a dose of 0.5 mg/kg. Approximately 0.18 mL of blood was collected from the jugular vein or tail vein at 0.0833, 0.25, 0.5, 1.0, 2.0, 4.0, 8.0 and 24 hrs after intravenous administration. The corresponding test compound in the vehicle was administered by gavage to male SD rats (fasted overnight before administration) at a dose of 5 mg/kg. The experimental conditions are detailed in Table 20. Blood was collected from the jugular or tail vein at 0.0833, 0.25, 0.5, 1.0, 2.0, 4.0, 6.0, 8.0 and 24 hrs after oral administration. The blood was fed to an anticoagulation tube supplemented with EDTA-K2, and centrifuged to separate plasma. The plasma concentrations were determined by LC-MS/MS, and the relevant pharmacokinetic parameters were calculated by the linear logarithmic trapezoid method of non-compartmental model using WinNonlm™ Version 6.3 (Pharsight, Mountain View, CA) pharmacokinetic software."}, "[2]": {"test": "Solid stability test (high temperature, high humidity, light, accelerated)", "type": "physicochemical", "protocol": "High Performance Liquid Chromatography (HPLC) of the Present Invention [table] Experimental method: 12 parallel samples of the crystal form A of the compound of formula (II) were weighed in an amount of about 1 g each. Each sample was fed to a double-layer LDPE bag, and each layer of the LDPE bag was tied and sealed. […] The photostability experiment was carried out as described in the Chinese Pharmacopoeia and ICH Q1B. The samples were irradiated with visible light and UV light."}, "[3]": {"target": "T1, human FGFR1 (Homo sapiens, UniProt P11362)", "T1 construct": "purchased Invitrogen PV3146", "T1 sequence (P11362 22-822)": "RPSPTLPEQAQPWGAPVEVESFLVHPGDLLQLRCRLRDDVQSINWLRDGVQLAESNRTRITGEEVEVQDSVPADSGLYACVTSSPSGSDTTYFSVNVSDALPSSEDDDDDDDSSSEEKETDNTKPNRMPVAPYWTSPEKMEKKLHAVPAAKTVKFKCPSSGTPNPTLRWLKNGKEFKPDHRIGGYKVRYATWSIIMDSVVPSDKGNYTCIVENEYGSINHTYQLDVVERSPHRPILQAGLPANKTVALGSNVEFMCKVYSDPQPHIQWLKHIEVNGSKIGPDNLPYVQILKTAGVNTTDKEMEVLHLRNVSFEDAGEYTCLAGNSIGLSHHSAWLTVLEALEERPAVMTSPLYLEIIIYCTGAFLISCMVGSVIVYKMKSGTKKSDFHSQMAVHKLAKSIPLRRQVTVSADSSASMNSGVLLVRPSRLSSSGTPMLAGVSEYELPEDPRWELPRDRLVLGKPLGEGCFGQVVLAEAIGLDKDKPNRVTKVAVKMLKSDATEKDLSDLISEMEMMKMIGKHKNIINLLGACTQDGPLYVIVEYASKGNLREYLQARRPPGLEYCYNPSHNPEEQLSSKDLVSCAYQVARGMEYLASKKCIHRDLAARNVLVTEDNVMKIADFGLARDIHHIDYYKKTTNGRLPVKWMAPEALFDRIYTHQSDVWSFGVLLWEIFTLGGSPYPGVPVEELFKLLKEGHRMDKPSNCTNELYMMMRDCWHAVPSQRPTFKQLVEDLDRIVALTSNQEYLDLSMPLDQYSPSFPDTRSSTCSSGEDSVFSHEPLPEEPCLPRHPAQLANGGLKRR", "test": "33P isotope-labeled kinase activity assay, FGFR1", "type": "biochemical", "details": "ATP 5 μM", "experimental": "Test procedure: At room temperature, the test compound was dissolved in DMSO to prepare a 10 mM solution for use. The substrate was dissolved in freshly prepared buffer, and the test kinase was added and mixed well. A solution of the test compound in DMSO was added to the mixed reaction solution using an acoustic technology (Echo550). […] After 15 min of incubation, ^33P-ATP (with an activity of 0.01 μCi/nL, the corresponding concentration is listed in Table 18) was added to start the reaction. […] The kinase activity data were expressed by the comparison of the kinase activity in the presence of the test compound with the kinase activity of the blank group (containing only DMSO), and an IC50 value was obtained by curve fitting with Prism4 software (GraphPad)."}, "[4]": {"target": "T2, human FGFR4 (Homo sapiens, UniProt P22455)", "T2 construct": "purchased Invitrogen P3054", "T2 sequence (P22455 22-802)": "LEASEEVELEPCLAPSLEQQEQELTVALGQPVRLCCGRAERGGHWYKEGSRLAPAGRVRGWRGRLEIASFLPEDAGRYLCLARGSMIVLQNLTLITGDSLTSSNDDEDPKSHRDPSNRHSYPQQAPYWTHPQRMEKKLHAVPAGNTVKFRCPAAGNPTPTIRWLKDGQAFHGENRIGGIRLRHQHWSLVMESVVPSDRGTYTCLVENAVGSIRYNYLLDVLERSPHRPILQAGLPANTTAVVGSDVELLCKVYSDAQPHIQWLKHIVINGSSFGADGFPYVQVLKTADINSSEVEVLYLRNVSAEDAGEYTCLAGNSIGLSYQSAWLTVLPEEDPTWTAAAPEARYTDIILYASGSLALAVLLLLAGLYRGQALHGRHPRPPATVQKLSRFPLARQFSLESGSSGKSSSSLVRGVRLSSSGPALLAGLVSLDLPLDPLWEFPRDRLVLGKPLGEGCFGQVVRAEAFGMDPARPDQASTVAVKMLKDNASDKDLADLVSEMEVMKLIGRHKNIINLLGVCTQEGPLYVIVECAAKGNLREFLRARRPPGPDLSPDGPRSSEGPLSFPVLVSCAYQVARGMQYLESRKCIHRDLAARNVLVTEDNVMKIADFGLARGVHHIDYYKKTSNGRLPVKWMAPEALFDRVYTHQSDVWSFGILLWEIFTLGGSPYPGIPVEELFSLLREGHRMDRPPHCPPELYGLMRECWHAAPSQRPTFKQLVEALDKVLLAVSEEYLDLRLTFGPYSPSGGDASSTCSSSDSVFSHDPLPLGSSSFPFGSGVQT", "test": "33P isotope-labeled kinase activity assay, FGFR4", "type": "biochemical", "details": "ATP 100 μM", "protocol": "(§1) The IC50 value was tested by ^33P isotope-labeled kinase activity assay (Reaction Biology Corp) to evaluate the inhibition of the test compounds on human FGFR1, FGFR4, and c-Met.\n(§2) Buffer: 20 mM Hepes (pH 7.5), 10 mM MgCl2, 1 mM EGTA, 0.02% Brij35, 0.02 mg/ml BSA, 0.1 mMNa3VO4, 2 mM DTT, and 1% DMSO.\n(§3) Test procedure: At room temperature, the test compound was dissolved in DMSO to prepare a 10 mM solution for use. The substrate was dissolved in freshly prepared buffer, and the test kinase was added and mixed well. A solution of the test compound in DMSO was added to the mixed reaction solution using an acoustic technology (Echo550). The compound concentration in the reaction solution was 1 μM, 0.25 μM, […], 0.977 nM, 0.244 nM, 0.061 nM, 0.0153 nM, 0.00381 nM, or 10 μM, 2.50 μM, 0.62 μM, 0.156 μM, 39.1 nM, 9.8 nM, 2.4 nM, 0.61 nM, 0.15 nM, and 0.038 nM, respectively. After 15 min of incubation, ^33P-ATP (with an activity of 0.01 μCi/nL, the corresponding concentration is listed in Table 18) was added to start the reaction. The supplier's catalogue number, lot number, and concentration in the reaction solution of FGFR1, FGFR4, c-Met, and substrates thereof are listed in Table 18. […]"}, "[5]": {"test": "Stability comparison of crystal form A and crystal form B (slurry in ethanol, XRPD)", "type": "physicochemical", "details": "from conversion in ethanol, 16 hrs", "source_text": "35 g of the crystal form B of the compound of Formula (II) was weighed, added to ethanol, and stirred for 16 hrs."}, "[6]": {"target": "T3, human c-Met (Homo sapiens, UniProt P08581)", "T3 construct": "purchased Invitrogen PV3143", "T3 sequence (P08581 25-1390)": "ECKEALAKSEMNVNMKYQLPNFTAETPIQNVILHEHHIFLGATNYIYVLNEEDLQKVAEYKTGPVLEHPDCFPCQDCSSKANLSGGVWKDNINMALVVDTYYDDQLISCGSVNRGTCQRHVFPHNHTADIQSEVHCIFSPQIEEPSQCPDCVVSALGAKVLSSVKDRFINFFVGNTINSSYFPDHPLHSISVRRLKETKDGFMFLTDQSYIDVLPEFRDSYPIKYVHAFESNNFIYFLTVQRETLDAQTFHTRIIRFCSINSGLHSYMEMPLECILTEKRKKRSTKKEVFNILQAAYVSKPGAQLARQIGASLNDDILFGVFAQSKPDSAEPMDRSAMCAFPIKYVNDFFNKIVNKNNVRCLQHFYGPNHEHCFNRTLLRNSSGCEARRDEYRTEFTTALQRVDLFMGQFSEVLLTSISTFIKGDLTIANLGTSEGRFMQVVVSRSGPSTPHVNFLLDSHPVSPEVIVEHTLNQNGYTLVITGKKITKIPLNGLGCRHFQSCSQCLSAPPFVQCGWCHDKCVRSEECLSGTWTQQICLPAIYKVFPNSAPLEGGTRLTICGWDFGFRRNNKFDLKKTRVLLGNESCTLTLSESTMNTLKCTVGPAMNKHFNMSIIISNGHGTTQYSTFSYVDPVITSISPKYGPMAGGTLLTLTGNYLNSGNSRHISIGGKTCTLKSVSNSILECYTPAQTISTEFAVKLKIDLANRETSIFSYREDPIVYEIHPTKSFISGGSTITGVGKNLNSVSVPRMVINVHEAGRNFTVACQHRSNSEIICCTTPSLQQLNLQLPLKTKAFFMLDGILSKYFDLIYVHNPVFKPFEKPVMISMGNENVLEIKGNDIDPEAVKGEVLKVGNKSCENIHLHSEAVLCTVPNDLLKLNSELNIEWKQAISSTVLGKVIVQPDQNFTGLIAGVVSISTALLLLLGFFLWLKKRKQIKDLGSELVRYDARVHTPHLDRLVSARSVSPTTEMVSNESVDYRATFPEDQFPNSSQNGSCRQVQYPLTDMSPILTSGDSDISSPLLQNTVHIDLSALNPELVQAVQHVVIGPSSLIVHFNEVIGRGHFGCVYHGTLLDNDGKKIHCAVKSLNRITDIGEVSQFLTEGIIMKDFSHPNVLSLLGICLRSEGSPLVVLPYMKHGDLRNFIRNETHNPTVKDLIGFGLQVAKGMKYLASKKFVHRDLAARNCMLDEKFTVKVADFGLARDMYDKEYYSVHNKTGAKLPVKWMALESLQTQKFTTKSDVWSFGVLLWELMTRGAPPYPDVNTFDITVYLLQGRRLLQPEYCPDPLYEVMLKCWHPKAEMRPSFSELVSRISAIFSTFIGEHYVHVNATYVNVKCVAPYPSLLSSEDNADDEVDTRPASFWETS", "test": "33P isotope-labeled kinase activity assay, c-Met", "type": "biochemical", "details": "ATP 10 μM", "protocol": "as §1, §2, §3"}, "[7]": {"details": "intravenous, 0.5 mg/kg, male SD rats"}, "[8]": {"details": "oral (gavage), 5 mg/kg, male SD rats"}, "[9]": {"details": "rat, plasma, PO, 5 mg/kg, male SD rats (table title says mice)"}, "[10]": {"details": "Acceleration experiment (40° C./relative humidity 75%, open), 1 month"}, "[11]": {"details": "Acceleration experiment (40° C./relative humidity 75%, open), 2 month"}, "[12]": {"details": "Acceleration experiment (40° C./relative humidity 75%, open), 3 month"}, "[13]": {"details": "High humidity (room temperature/relative humidity 92.5%, open), Day 5"}, "[14]": {"details": "High humidity (room temperature/relative humidity 92.5%, open), Day 10"}, "[15]": {"details": "High humidity (room temperature/relative humidity 92.5%, open), Day 30"}, "[16]": {"details": "High temperature (60° C., open), Day 5"}, "[17]": {"details": "High temperature (60° C., open), Day 10"}, "[18]": {"details": "High temperature (60° C., open), Day 30"}, "[19]": {"details": "Light irradiation (1.2 × 10^6 Lux·hr / near ultraviolet 200 w·hr/m^2, open 10 days), light irradiation sample"}, "[20]": {"details": "Light irradiation test, sample in the dark"}}, "note": "Like-named read-outs stand apart in the source and are kept apart here."}
{"smiles": "COc1cc(OC)c(F)c(Cc2c[nH]c3ncc(-c4cnn(CCO)c4)cc23)c1F.Cl", "values": [{"measurement": "Drug exposure", "setting": "[1]; [7]", "value": "high level"}, {"measurement": "Volume of distribution", "setting": "[1]; [7]", "value": "high"}, {"measurement": "clearance", "setting": "[1]; [7]", "value": "moderately low"}, {"measurement": "half-life", "setting": "[1]; [7]", "value": "moderate"}, {"measurement": "Oral exposure", "setting": "[1]; [8]", "value": "high level"}, {"measurement": "Oral exposure level compared with other salt crystal forms", "setting": "[1]; [8]", "value": "higher than that of the crystal form G of the compound of Formula (III), and the crystal form J of the compound of Formula (III)"}, {"measurement": "Peak time", "setting": "[1]; [8]", "value": "rapid"}, {"measurement": "AUC(0-t)", "setting": "[1]; rat, plasma, IV, 0.5 mg/kg, male SD rats (table title says mice)", "value": 1.01, "unit": "µM·h"}, {"measurement": "clearance", "setting": "[1]; rat, plasma, IV, 0.5 mg/kg, male SD rats (table title says mice), read-out: Cl", "value": 18.4, "unit": "mL/min/kg"}, {"measurement": "half-life", "setting": "[1]; rat, plasma, IV, 0.5 mg/kg, male SD rats (table title says mice), read-out: T1/2 (converted)", "value": 79.2, "unit": "min"}, {"measurement": "Vd", "setting": "[1]; rat, plasma, IV, 0.5 mg/kg, male SD rats (table title says mice), read-out: Vdss", "value": 1.87, "unit": "L/kg"}, {"measurement": "AUC(0-t)", "setting": "[1]; [9]", "value": 5.18, "unit": "µM·h"}, {"measurement": "Cmax", "setting": "[1]; [9]", "value": 1960, "unit": "nM"}, {"measurement": "Tmax", "setting": "[1]; [9]", "value": 30, "unit": "min"}, {"measurement": "Content (%)", "setting": "[2]; [10]", "value": 99.7, "unit": "%"}, {"measurement": "Total impurity (%)", "setting": "[2]; [10]", "value": 0.67, "unit": "%"}, {"measurement": "Content (%)", "setting": "[2]; [11]", "value": 99.7, "unit": "%"}, {"measurement": "Total impurity (%)", "setting": "[2]; [11]", "value": 0.69, "unit": "%"}, {"measurement": "Content (%)", "setting": "[2]; [12]", "value": 99.9, "unit": "%"}, {"measurement": "Total impurity (%)", "setting": "[2]; [12]", "value": 0.68, "unit": "%"}, {"measurement": "Content (%)", "setting": "[2]; Day 0", "value": 99.8, "unit": "%"}, {"measurement": "Total impurity (%)", "setting": "[2]; Day 0", "value": 0.71, "unit": "%"}, {"measurement": "Content (%)", "setting": "[2]; [13]", "value": 99.6, "unit": "%"}, {"measurement": "Total impurity (%)", "setting": "[2]; [13]", "value": 0.75, "unit": "%"}, {"measurement": "Content (%)", "setting": "[2]; [14]", "value": 99.8, "unit": "%"}, {"measurement": "Total impurity (%)", "setting": "[2]; [14]", "value": 0.71, "unit": "%"}, {"measurement": "Content (%)", "setting": "[2]; [15]", "value": 98.9, "unit": "%"}, {"measurement": "Total impurity (%)", "setting": "[2]; [15]", "value": 0.65, "unit": "%"}, {"measurement": "Content (%)", "setting": "[2]; [16]", "value": 99.6, "unit": "%"}, {"measurement": "Total impurity (%)", "setting": "[2]; [16]", "value": 0.78, "unit": "%"}, {"measurement": "Content (%)", "setting": "[2]; [17]", "value": 99.9, "unit": "%"}, {"measurement": "Total impurity (%)", "setting": "[2]; [17]", "value": 0.76, "unit": "%"}, {"measurement": "Content (%)", "setting": "[2]; [18]", "value": 98.5, "unit": "%"}, {"measurement": "Total impurity (%)", "setting": "[2]; [18]", "value": 0.80, "unit": "%"}, {"measurement": "Content (%)", "setting": "[2]; [19]", "value": 99.8, "unit": "%"}, {"measurement": "Total impurity (%)", "setting": "[2]; [19]", "value": 0.76, "unit": "%"}, {"measurement": "Content (%)", "setting": "[2]; [20]", "value": 99.8, "unit": "%"}, {"measurement": "Total impurity (%)", "setting": "[2]; [20]", "value": 0.79, "unit": "%"}, {"measurement": "Solid stability in words", "setting": "[2]; accelerated conditions and affecting factors", "value": "very stable, and no obvious unknown impurities are formed"}, {"measurement": "IC50", "setting": "[3]", "value": 0.2, "unit": "nM"}, {"measurement": "IC50", "setting": "[4]", "value": 1.49, "unit": "nM"}, {"measurement": "Relative stability of crystal forms", "setting": "[5]", "value": "more stable than the crystal form B of the compound of Formula (II)"}, {"measurement": "IC50", "setting": "[6]", "value": 15.9, "unit": "nM"}]}
